Experimental findings from patent US20210030650A1, “USE OF A NOVEL COMPOSITION FOR PREVENTING OR SLOWING DOWN THE APPEARANCE OF UNSIGHTLY SIGNS RELATING TO THE PRESENCE OF EXCESS SEBUM” (SOCIETE D'EXPLOITATION DE PRODUITS POUR LES INDUSTRIES …, priority 2018, published 2021) are described below.

Structures are written as SMILES. Where two headings read alike, the source gives them in different places.

The subject of test [1] is sebocytes of the SEBO662AR line. Put plainly: Overproduction of lipids by testosterone-stimulated sebocytes (Bodipy lipid droplet imaging, standardized by nuclei count). The format is cell-based. An excerpt:
The imbalance in the cutaneous microbiota occurs in particular when the proliferation of Propionibacterium acnes is observed. In this case also, Propionibacterium acnes induces inflammation of the skin, on the one hand by inducing the overproduction of lipids by sebocytes and, on the other hand, by producing a lipase which converts triglycerides into free fatty acids, which are irritating and chemotactic for neutrophils.
The effect of the composition (C1A) on the overproduction of lipids was studied on sebocytes of the SEBO662AR line (Bioalternatives line) sensitive to stimuli, such as testosterone, to produce lipids.
The sebocytes were first of all treated for 4 hours with the composition to be tested (or a positive reference). The testosterone was then added for 7 days to the culture medium, with renewal of the treatments and of the stimulation after 3 days. The formation of lipid droplets was detected by imaging using the Bodipy® fluorescent probe and the results were standardized by counting the nuclei with Hoechst staining.
The values are expressed as means+/−sem [standard error of the mean=standard deviation/root (number of values)].
% stimulation=100×[mean (cells+treatment)/mean (cells stimulated with testosterone)]
% inhibition=100×[mean (cells+treatment)−mean (cells stimulated with testosterone)/mean (untreated cells)−mean (cells stimulated with testosterone)]

The test system of another test is lipase. Put plainly: Antilipase activity, in tubo method (1,2-diglyceride to glycerol, absorbance at 570 nm). Particulars: for % inhibition of the lipase: Table 11 experiment. The format is biochemical. As for the experimental part: This involves studying the ability of a composition to […] and regulate the activity of the lipase enzyme by an in tubo method, said enzyme having an inflammatory action.
The samples in the evaluation test are placed in tubo in the presence of lipase and 1,2-diglyceride and the absorbance of the samples is measured with a spectrophotometer at the wavelength 570 nm as soon as they are prepared and then after 60 minutes of incubation at 37° C., under the same spectral conditions. By virtue of a range of glycerol, the lipase activity of the samples can be calculated, as well as the percentage of inhibition, according to the following formulae:
Lipase activity=(amount of glycerol formed between 0 and 60 minutes)/(60 minutes×sample volume)
Percentage of inhibition=100×[(lipase activity of the control group)−(lipase activity of the test product)]/(lipase activity of the control group).

Setting [2] is: Table 9, 1 nM testosterone, 0.006% compound.
Where [3] appears, read: Table 9, 1 nM testosterone, 0.012% compound.

Regarding `C[C@]12C=CC(=O)N[C@@H]1CC[C@@H]1[C@@H]2CC[C@]2(C)[C@@H](C(=O)Nc3cc(C(F)(F)F)ccc3C(F)(F)F)CC[C@@H]12` [dutasteride, reference compound], the inhibition at 1 µM in test [1] (Table 8, cells stimulated with 1 nM testosterone, 1 μM dutasteride, read-out: Lipids (fluorescence intensity)/number of cells, % inhibition) worked out at 113%; in test [1] (Table 9, 1 nM testosterone, 1 μM dutasteride, read-out: Lipids, % inhibition), 91%. Moreover, in test [1] (Table 8, cells stimulated with 1 nM testosterone, 1 μM dutasteride, stimulated untreated cells = 100), the “Lipids (fluorescence intensity)/number of cells, % stimulation” value is reported as 22%. In addition, the “Lipids, % change vs testosterone-stimulated cells” value in test [1] (Table 9, 1 nM testosterone, 1 μM dutasteride) is given as −82.
Take `O=C1O[C@H]([C@@H](O)CO)C(O)=C1O` [Vitamin C, reference compound]: the Lipase activity with lipase (Table 10, positive reference, concentration not given, 60 minutes at 37° C., control 4.21) is on record as 2.11 +/− 0.01 mU/m1; in the test on lipase (Table 11, positive reference, concentration not given, control 4.72), 1.36 +/− 0.01 mU/ml.
As for `O=C(O)CC(O)C(=O)OC1(C(=O)O)CC(OC(=O)C=Cc2ccc(O)c(O)c2)C(OC(=O)C=Cc2ccc(O)c(O)c2)C(OC(=O)C=Cc2ccc(O)c(O)c2)C1` (stereo not drawn) [Compound of formula (Ia), 1-O-Maloyl-3,4,5-tri-O-caffeoylquinic acid], the “Lipids, % change vs testosterone-stimulated cells” value was 21 in test [1] (Table 9, 1 nM testosterone, 0.0012% compound); −34 in test [1] (setting [2]); −29 in test [1] (setting [3]). The “Lipids, % inhibition” value in test [1] (setting [2]) is on record as 38%; in test [1] (setting [3]) it was 32%. The Lipase activity is listed as 4.65 +/− 0.03 mU/ml with lipase (Table 11, 0.00012% by weight, control 4.72); 4.15 +/− 0.03 mU/ml in the test with lipase (Table 11, 0.00024% by weight, control 4.72); 2.16 +/− 0.07 mU/ml in the test on lipase (Table 11, 0.0006% by weight, control 4.72); 1.02 +/− 0.01 mU/ml in the test on lipase (Table 11, 0.0012% by weight, control 4.72). Moreover, the “% inhibition of the lipase” value in the test with lipase (0.0006% by weight) amounted to 54%; in the test on lipase (0.0012% by weight), 78%.
For the compound `CC(O)CO` (stereo not drawn) [Propylene Glycol], the Lipase activity with lipase (Table 10, product at 1% by weight, 60 minutes at 37° C., control 4.21) is reported as 6.40 +/− 0.05 mU/m1.
